Source: US20260174862A1, “PHARMACEUTICAL COMPOSITION COMPRISING PRMT5 INHIBITOR AND PD-1/PD-L1 INHIBITOR” (APEIRON THERAPEUTICS (HONG KONG) LTD., priority 2024, published 2026)

Test system: DuNN MTAP KO cells
Experiment: In vivo pharmacodynamic study in C3H mouse model of tibial orthotopic xenograft with DuNN MTAP KO cells
Settings: for Tumor volume (mean): tibial orthotopic DuNN MTAP KO tumor, compound D 1 mg/kg PO QD, PD-1 antibody 5 mg/kg I.P. QW, n=6
Procedure: Example 1: In Vivo Pharmacodynamic Study of Compound D in C3H Mouse Model of Tibial Orthotopic Xenograft with DuNN MTAP KO Cells
Cell culture: […] DuNN MTAP KO cells (provided by the Experimental Animal Center of Shanghai First People's Hospital) were cultured in vitro monolayer under the conditions of adding 10% fetal bovine serum and 1% Antibiotic-Antimycotic to DMEM medium, and culturing in a 5% CO2 incubator at 37° C. Pancreatin-EDTA was used twice a week for routine digestion and passage. When the cell saturation is 80%-90% and the number of cells reached the requirement, the cells were collected, counted, and inoculated.
Animals: C3H normal mice, female, 4-6 weeks old, weighing 18-22 g. A total of 30 animals were required (24 enrolled, surplus).
Tumor inoculation: DUNN cells were digested with 0.25% pancreatin-EDTA solution to make them into a single cell suspension, washed with PBS buffer and the cell density was adjusted to 1×10^7/ml for further use. On the day of the experiment, mice were intraperitoneally injected with 0.5% sodium pentobarbital solution at a dose of 40 mg/kg to anesthetize them. A bone hole with a diameter of about 1 mm was drilled in the upper end of the right hindlimb tibia with a 1 ml syringe to reach the marrow cavity. Be careful not to penetrate the contralateral cortical bone and cause fractures or bleeding. A 1 ml syringe and a 25 G needle were used to draw the DUNN cell suspension and it was slowly injected into the tibial bone marrow cavity of the experimental group mice at a dose of 30 μl. Be careful not to cause cell reflux or leakage. After injection, the surgical field was disinfected with 75% alcohol, and the mice were returned to their cages, covered with sterile dressings, kept warm until they woke up, and then continued to be housed for observation. Randomized dosing began when the average tumor volume reached about 150 mm^3. At the end of the experiment, mice were intraperitoneally injected with 0.5% sodium pentobarbital solution at a dose of 120 mg/kg to euthanize them. Their tibia and tumor tissues were removed, fixed with 10% formaldehyde, paraffin sections were made, stained with HE, and the histological morphology and invasion of the tumors were observed under a microscope. The expression of proliferation indicators such as Ki-67 and PCNA in tumor cells was detected by immunohistochemistry.
Administering volume: 10 μL/g based on the weight of mice. If the weight loss exceeds 15%, stop administering immediately and resume it after the weight loss returns to less than 10%.
Animal grouping: Animals were weighed before administration and tumor volumes were measured. Randomized grouping was based on tumor volumes (randomized block design).
Experimental indicators: were used to examine whether tumor growth was inhibited, delayed or cured. The tumor diameter was measured twice a week with a vernier caliper. The calculation equation for tumor volumes is: V=0.5a×b^2, where a and b represent the major and minor diameters of the tumor, respectively.
The antitumor efficacy of the compound was evaluated by TGI (%) or tumor proliferation rate T/C (%). TGI (%) reflects the tumor growth inhibition. Calculation of TGI (%): TGI (%)=[1−(average tumor volume at the end of administering in a treatment group-average tumor volume at the start of administering in this treatment group)/(average tumor volume at the end of treatment in the solvent control group-average tumor volume at the start of treatment in the solvent control group)]×100%.
Tumor proliferation rate T/C (%): The calculation equation is as follows: T/C (%)=Ti/Vi×100%. Where Vi is the average tumor volume of the solvent control group at a certain measurement, and Ti is the average tumor volume of the treatment group at the same measurement. […]

For CN(C(=O)c1cc2c(cc1F)nc(N)c1cncn12)[C@@H]1COc2cc(C(F)(F)F)ccc21 [Compound D], the “tumor growth inhibition (TGI)” value (25-day study, compound D 1 mg/kg oral once daily, anti-PD-1 antibody 5 mg/kg intraperitoneal, C3H mice, DUNN tibial orthotopic model) was 30.9%, the “Tumor volume (mean)” value (Day 0, C3H mice) was 21.6 mm^3 and the “Tumor volume (mean)” value (Day 4, C3H mice) was 35.7 mm^3. The “Tumor volume (mean)” value (Day 7, C3H mice) was 41.3 mm^3, the “Tumor volume (mean)” value (Day 10, C3H mice) was 52.2 mm^3 and the “Tumor volume (mean)” value (Day 14, C3H mice) was 68.7 mm^3. The “Tumor volume (mean)” value (Day 18, C3H mice) was 85.2 mm^3, the “Tumor volume (mean)” value (Day 21, C3H mice) was 136.9 mm^3 and the “Tumor volume (mean)” value (Day 25, C3H mice) was 225.6 mm^3. The “statistical significance (P) vs. control” value (one-way ANOVA, 25-day study, same doses) was “did not reach statistical significance”.
